This note sets out measurements from a melting point compilation (Tetko et al.; mined from patent text by program, amines drawn as free bases though some values may be those of a salt).

As to `Cc1ccccc1Oc1cccc(NC(=O)c2ccn3c2CSC3c2cccnc2)c1` (stereo unspecified), the melting point (usually the temperature, or range, at which the solid turns liquid) came to 180 °C.
For `CC#CCOc1ccc(S(=O)C(C(=O)NO)c2ccc3ccccc3c2)cc1` (stereo unspecified), the melting point came out at 157 °C.
As for `CNC1(c2ccccc2Cl)C(=O)N(S(=O)(=O)c2ccc(NC(=O)c3cccnc3)cc2)c2ccc(Cl)cc21` (stereo unspecified), the melting point was determined as 228 °C.
As for `CCCCNC(=O)C(O[Si](C)(C)C(C)(C)C)c1ccccc1O` (stereo unspecified), the melting point lay within 72 to 74 °C.
For `CC(CCCCCCCCCC(=O)O)CC(=O)O` (stereo unspecified), the melting point fell in the range of 68.5 to 69.5 °C.
Next, `C=CCOc1ccc(Cl)c2oc(Cc3ccc(OC)cc3)c(C)c12`: 90 to 93 °C; `CS(=O)(=O)c1ncnn1CC(O)(Cc1ccccc1Cl)C1(Cl)CC1` (stereo unspecified): 125 to 128 °C.
The compound `CCCCC1CCc2c(OCc3ccc4ccccc4n3)cccc2C1=O` (stereo unspecified) displayed a melting point of 97 to 98 °C.
In the case of `Cc1cccc(Nc2n[nH]c(N=CN(C)C)c2C#N)c1`, the melting point fell in the range of 260 to 261 °C.
Next, `Cn1cc(C2=C(c3cn(CCCNc4ncccn4)c4ccccc34)C(=O)NC2=O)c2ccccc21`: 214 to 215 °C; `CC(=O)NC12Oc3c(C(C)C)cc(C(C)C)cc3C1(O)C(=O)c1ccccc12` (stereo unspecified): 217 to 219 °C; `Cc1cccc(N2Cc3nc(CO)nn3-c3ccccc32)c1C`: 186 to 194 °C.
In turn, `CNC(=C[N+](=O)[O-])NOCCCc1csc(NC(=N)N)n1` came in with a melting point of 144 to 146 °C.
Take `COc1cccc(NS(=O)(=O)c2sccc2C2OCCO2)c1`: the melting point is 112 to 114 °C.
As for `CCCSc1ncc(CCC(=O)O)n1Cc1ccccc1Cl`, the melting point fell in the range of 169 to 170 °C.
The same measure for `Cc1cccc(C2=NC(C)(C(C)C)C(=S)N2)c1` (stereo unspecified): 122 to 123 °C.
Turning to `O=C(O)CCC(CSc1nc2ccccc2s1)C(=O)O` (stereo unspecified), the melting point is 152 to 154 °C.
Next, `CCOCc1nc2c(N)nc3ccccc3c2n1CC1(O)CCN(C)CC1`: 198 °C.
`CC1C(=CO)C(=O)c2c(O)cc(OCCCCc3ccccc3)cc2N1C=O` (stereo unspecified) returned a melting point of 101 to 103 °C.
Turning to `Cc1cc(NS(=O)(=O)c2cccs2)c2[nH]c(C3=NCCS3)cc2c1C`, the melting point is 201 to 202 °C.
Next, `O=c1[nH]c2cc(Cl)ccc2n1C1CCNCC1`: 200 to 206 °C; `COc1cc(OC)nc(NC(=O)NS(=O)(=O)c2ccccc2C=C2CCOC2=O)n1`: 185 to 190 °C; `CC(Cc1ccc(F)c(F)c1)C(=O)O` (stereo unspecified): 55 to 56 °C.
The compound `COC(=O)c1ccc2c(c1)S(=O)(=O)c1ccccc1NC2` yielded a melting point of 236 °C.
`COc1ccc2c(c1)c(CCl)nn2Cc1ccccc1` displayed a melting point of 78 to 80 °C.
The same measure for `COc1c(C)c(C)c(OC)c(C(O)(c2ccc(F)cc2)C(C)C)c1C` (stereo unspecified): 129 to 130 °C; for `CSc1ncc2cc(Cc3ccccc3F)c(=O)n(C)c2n1`: 156 to 159 °C; for `C#Cc1ccc2ccc(C#C)cc2c1`: 124 to 126 °C.
For the compound `CS(=O)(=O)c1ccc(-c2[nH]nc(C(=O)CCCO[N+](=O)[O-])c2-c2ccc(C#N)cc2)cc1`, the melting point was in the range of 148 to 149 °C.
The same measure for `Cc1nnc(-c2ccc3occ(-c4ccc(OCS(C)(=O)=O)cc4)c3c2)o1`: 198 to 199 °C.
`CCCCC(CBr)CCCc1ccccc1` (stereo unspecified): the melting point lay within 31 to 33 °C.
In turn, `CC(=O)NC[C@H]1CN(c2ccc(Br)cn2)C(=O)O1` yielded a melting point of 166 to 168 °C.
For the compound `CC(C)Oc1ccc(-c2cccs2)cc1C=O`, the melting point is 186 to 187 °C.
Next, `O=c1oc(-c2ccc(C#Cc3ccccc3)cc2)cc(O)c1SCCc1ccccc1`: 181 to 182 °C; `CCOC(=O)c1c(C(F)(F)F)nc(-c2cccs2)c(-c2ccccc2)c1O`: 136 °C.
The compound `CN1CCCCC1CCc1ccccc1NC(=O)C#Cc1ccccc1` (stereo unspecified) displayed a melting point of 104 to 106 °C.
